System: clathrin mediated endocytosis (TfR-SEP) in NIH 3T3 cells
Assay: ppH assay combined with patch-clamp dialysis
Type: cell-based
Conditions: for inhibition of endocytosis on dialysis: peptide dialysed through patch pipette, 3T3 cells, ppH assay; for event frequency ratio f = FWC/FCA: event frequency 8–10 min whole cell over 3–5 min cell attached, same cell, average ± SEM, SEM
Experimental: To do so, we monitored cellular endocytic activity using the ppH assay with new developments for fully automated analysis on a large number of cells (See “Methods” and Supplementary Fig. 4). We combined this assay, which monitors in real time the endocytic activity of cells, with the patch-clamp technique in order to dialyse the relevant peptide at a known concentration inside the cellular cytoplasm to inhibit endocytosis acutely. Each recording consisted of 5 min in cell-attached mode (CA) with no dialysis followed by 10 min in whole cell mode (WC) during which the inhibitors were dialysed (Fig. 5a, b). Each recording therefore had its own internal control condition, i.e., the cell-attached mode, from which we obtained the frequency ratio f = FWC/FCA, where F is the event frequency recorded during the indicated mode. Of note, the electrical parameters of patch clamp recordings were similar in all conditions (Supplementary Fig. 5). To assess the innocuousness of this assay, we monitored the endocytic activity of unperturbed cells vs. cells dialysed with a control solution (see methods for composition). Patching the cells minimally affected their endocytic activity over a 10 min period (event frequency f = 67.3 ± 4.3%, n = 60, vs. 90.7 ± 14.9% in no patching recordings, n = 8, p = 0.58).
NIH 3T3 cells (ECACC 93061524) were cultured in DMEM supplemented with 1% sodium pyruvate, 1% glutamax and 10% fetal calf serum (Invitrogen). Cells were incubated at 37 °C in 5% CO2 until use and subcultured every 2 to 4 days for maintenance up to passage 20. Cells were transfected with 1.5 μg of TfR-SEP plasmid 24 h prior to imaging and patch clamp. Care was taken to find the right balance between sufficient fluorescent signal to allow for proper imaging and reasonable overexpression to diminish potential saturation artefacts. Best results were obtained using Fugene 6 (Promega) as the transfection reagent but Lipofectamine 2000 (Invitrogen) has also been used in this study due to a temporary arrest of Fugene 6 production by the provider. All transfections were performed according to the manufacturers’ recommendations. Four to eight hours after transfection, cells were seeded at a density of ~70,000 cells ml^−1 on 18 mm glass coverslips coated with poly-L-lysine (3 min application of 0.1 mM polylysine (Sigma P2636) in borate buffer, pH 8.0 followed by a quick rinse in PBS) and used the next day.
Fast solution exchange was controlled by electro-valves (Lee company) connected to a theta glass pipette (TG150, Harvard Apparatus) pulled to ∼100-μm tip size using a vertical puller (Narishige, World Precision Instruments) placed above the recorded cell. Cells were alternatively perfused with HEPES or MES buffered saline solutions (HBS/MBS) containing (in mM): 135 NaCl, 5 KCl, 0.4 MgCl2, 1.8 CaCl2, 1 D-glucose and 20 HEPES or MES. The pH was adjusted to 7.4 or 5.5 using NaOH and osmolarity to 310–315 mOsm L^−1 with NaCl.
Cells were patched with pipettes made of borosilicate glass (GC150F, Harvard Apparatus) and pulled with a vertical Narishige puller (World Precision Instruments). The solution contained (in mM): 130–140 KCH3SO3, 1 EGTA, 0.1 CaCl2, 10–20 HEPES, 4 ATP (sodium or magnesium salt), 0.4 Na-GTP (or GTPγS when indicated), 5 phosphocreatine and 3 sodium ascorbate. pH was adjusted to 7.2 using KOH and osmolarity to ~300 mOsm L^−1. Sodium ascorbate was omitted in earlier recordings but was added for better stability. Chloride ions either came from 2 mM KCl, 10 mM NaCl or 4 mM MgCl2 (when Na-ATP was used) in various trials. All salts were purchased from Sigma-Aldrich. Cells were voltage-clamped at −60 mV with an EPC10 amplifier (HEKA) with series resistance and cell capacitance estimation every 4 s in the whole cell mode. The digital triggers of the amplifier were used to drive the electrovalves for pH changes. […]

| Compound | inhibition of endocytosis on dialysis | event frequency ratio f = FWC/FCA (100 µM peptide in patch pipette, n = 13 (D15)) [%] | event frequency ratio f = FWC/FCA (1 mM peptide in patch pipette, n = 22 (D15), 15 (D44), 6 (dD15-C)) [%] |
| --- | --- | --- | --- |
| CC(=O)N[C@@H](Cc1ccc(O)cc1)C(=O)N[C@@H](CCCCn1cc(CCC(=O)NCCCOCCOCCOCCCNC(=O)CCC(=O)NCCCOCCOCCOCCCNC(=O)CCC(=O)NCCCOCCOCCOCCCNC(=O)CCC(=O)N2CCC[C@H]2C(=O)N2CCC[C@H]2C(=O)N2CCC[C@H]2C(=O)N[C@@H](CCC(N)=O)C(=O)N[C@H](C(=O)N2CCC[C@H]2C(=O)N[C@@H](CO)C(=O)N[C@@H](CCCNC(=N)N)C(=O)N2CCC[C@H]2C(=O)N[C@@H](CC(N)=O)C(=O)N[C@@H](CCCNC(=N)N)C(=O)N[C@@H](C)C(=O)N2CCC[C@H]2C(=O)N2CCC[C@H]2C(=O)NCC(N)=O)C(C)C)nn1)C(=O)NCCCOCCOCCOCCCNC(=O)CCC(=O)NCCCOCCOCCOCCCNC(=O)CCC(=O)NCCCOCCOCCOCCCNC(=O)CCC(=O)N1CCC[C@H]1C(=O)N1CCC[C@H]1C(=O)N1CCC[C@H]1C(=O)N[C@@H](CCC(N)=O)C(=O)N[C@H](C(=O)N1CCC[C@H]1C(=O)N[C@@H](CO)C(=O)N[C@@H](CCCNC(=N)N)C(=O)N1CCC[C@H]1C(=O)N[C@@H](CC(N)=O)C(=O)N[C@@H](CCCNC(=N)N)C(=O)N[C@@H](C)C(=O)N1CCC[C@H]1C(=O)N1CCC[C@H]1C(=O)NCC(N)=O)C(C)C [dD15-N] | clearly increased efficiency over D15 |  |  |
| Ac-YPPPQVPSRPNRAPPG-NH2 [D15, reference compound] | only partial | 59.0 ± 5.0 | 38.2 ± 3.9 |
